Assay results reported in PMC11500415, “Chemical inhibition of stomatal differentiation by perturbation of the master-regulatory bHLH heterodimer via an ACT-Like domain” (Nature Communications, 2024).
“And” between values parts separate entries of the source, which are not always exact repeats. Identical values can stand only once. Like-named read-outs stand apart in the source and are kept apart here.

Key:
MUTE = target: T1, MUTE (Arabidopsis thaliana, UniProt Q9M8K6); assay: ITC direct binding; design: species or system A. thaliana
T1 construct: MUTE (1-202); made in house; host or cells: E. coli BL21
Excerpt: (§1) A. thaliana SCRM (1-494), ΔNSPCH (98-364), MUTE (1-202), ΔNFAMA (190-414), MUTEΔC (1-114), MUTER133A_R134A, MUTEE162A_E163A, MUTER133A_R134A_E162A_E163A, SCRM-ACTL (405-494), MUTE-ACTL (114-202), SPCH-ACTL (285-364), FAMA-ACTL (306-414), MUTE_ACTLR133A_R134A, MUTE_ACTLE162A_E163A, MUTE_ACTLR133A_R134A_E162A_E163A were cloned into pGEX-4T-1 vector with an N-terminal GST tag and a thrombin cleavage sequence. For protein expression, the constructs were transformed into E. coli strain BL21. For each transformant, a single colony was selected and incubated in 10 ml LB liquid media. The overnight-incubated E. coli suspensions were transferred to 1 L LB medium and incubated at 37 °C for around 2 h until the OD600 reached 0.4–0.6. The isopropyl β-D-1-thiogalactopyranoside ([…] of final concentration) was added to the cultures and the strains were incubated at 22 °C for a further 18 h. GST-fused proteins were purified using glutathione agarose resin. The soluble portion of the cell lysate was loaded onto a GST-Sepharose column. Nonspecifically bound proteins were removed by washing the column with 20 mM Tris pH 8.0, 200 mM NaCl. The bound GST-fused protein was eluted with 10 mm glutathione and 20 mM Tris pH 8.0, 200 mM NaCl. The GST-fused proteins were exchanged with phosphate-buffered saline buffer, and then the solution was treated with 50 μg of thrombin for 10–12 h at 16 ^οC. The GST portion of the protein was cleaved during thrombin digestion, and then the whole solution was reloaded onto the glutathione S-transferase column to obtain pure protein. The purified proteins were further purified by gel filtration on a Superdex-200 (GE) column using fast protein liquid chromatography and phosphate buffer (pH 7.2) as the eluent. The purity of the protein was checked by SDS-PAGE. For detailed lists of oligo DNA and plasmid information, see Supplementary Tables 5, 6, respectively.
Binding of the small molecule Stomidazolone (3) to SCRM, MUTE, SPCH, FAMA, MUTEΔC, MUTE_ACTL, SCRM_ACTL, SPCH_ACTL and FAMA_ACTL, MUTER133A_R134A, MUTEE162A_E163A, MUTER133A_R134A_E162A_E163A, as well as SCRM binding to MUTE in the presence and absence of Stomidazolone (3) / AYSJ1059 (5) /AYSJ1061 (6) was characterized at 30 °C using a Malvern PEAQ-ITC microcalorimeter. All the protein samples were dialyzed overnight using PBS buffer containing 2% DMSO and 1 mM DTT. Stomidazolone was dissolved in PBS buffer containing 2% DMSO and 1 mM DTT. Titrations were performed by injecting 1 × 0.5-μL and 12 × 3-μL or 1 × 0.75-μL and 18 × 2-μL or 1 × 0.2-μL and 25 × 1.3-μL aliquots of 1 mM Stomidazolone / AYSJ1059 / AYSJ1061 to 5-30 μM of protein in PBS buffer pH 7.4, containing 2% DMSO and 1 mM DTT. All titrations were carried out at least twice. The raw data were corrected using buffer and protein controls and analyzed using the software supplied by the manufacturer. See Supplementary Table 3 for details.

MUTE_ACTL = target: T2, MUTE_ACTL (Arabidopsis thaliana, UniProt Q9M8K6); assay: BLI direct binding; design: species or system A. thaliana
T2 construct: MUTE-ACTL (114-202); made in house; host or cells: E. coli BL21
Excerpt: as §1
The binding affinities of SCRM to MUTE / MUTER133A_R134A / MUTEE162A_E163A / MUTER133A_R134A_E162A_E163A in presence and absence of Stomidazolone (3) and its analogues (AYSJ1059 (5) and AYSJ1061 (6)), and Stomidazolone / AYSJ1059 / AYSJ1061 interactions with GST-tagged SCRM, MUTE, SPCH, FAMA, MUTE ΔACTL, MUTE_ACTL, SCRM_ACTL, SPCH_ACTL and FAMA_ACTL, MUTER133A_134A, MUTEE162A_E163A, MUTER133A_R134A_E162A_E163A were measured using the Octet Red96 system (ForteBio, Pall Life Sciences) following the manufacturer’s protocols. The optical probes coated with anti-GST were first loaded with 500 nM GST tagged proteins before kinetic binding analyses. The experiment was performed in 96-well plates maintained at 30 °C. Each well was loaded with 200 μL reaction volume for the experiment. The binding buffer used in these experiments contained 1× PBS supplemented with 2% DMSO, 0.02% Tween20. […] There was no binding of the analytes to the unloaded probes as shown by the control wells. Binding kinetics to all seven concentrations of the analytes were measured simultaneously using default parameters on the instrument. The data were analyzed using the Octet data analysis software. The association and dissociation curves were fit with the 1:1 homogeneous ligand model. The kobs (observed rate constant) values were used to calculate Kd, with steady-state analysis of the direct binding. See Supplementary Table 3 for details.

[1] = MUTE_ACTL on Anti-GST sensor, Stomid 3.12 µM, rep-1, rep-2
[2] = MUTE_ACTL on Anti-GST sensor, Stomid 6.25 µM, rep-1, rep-2

T2 sequence (Q9M8K6 114-202): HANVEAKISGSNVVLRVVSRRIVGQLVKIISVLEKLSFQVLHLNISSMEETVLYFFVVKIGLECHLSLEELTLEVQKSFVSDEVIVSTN
T1 sequence (Q9M8K6 whole entry): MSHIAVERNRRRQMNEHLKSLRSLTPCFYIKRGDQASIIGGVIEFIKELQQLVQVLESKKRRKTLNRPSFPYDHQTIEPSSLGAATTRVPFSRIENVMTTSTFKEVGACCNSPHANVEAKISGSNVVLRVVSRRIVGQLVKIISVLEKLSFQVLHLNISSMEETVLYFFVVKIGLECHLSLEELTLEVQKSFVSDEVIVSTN

O=C1C(c2ccccc2)=NC(NS(=O)(=O)c2ccccc2)(c2ccccc2)N1S(=O)(=O)c1ccccc1 (stereo not drawn) [Stomidazolone]
-T△S (MUTE): 17.3 ± 0.4 | Kd (MUTE): 7.8 ± 1.1 µM | △G (MUTE): -3.3 ± 0.2 | △H (MUTE): -20.6 ± 0.4 | Kd (MUTE_ACTL; BLI steady state, MUTE_ACTL, read-out: KD (SS)): 13.1 ± 1.3 µM | Response (MUTE_ACTL; BLI, GST-MUTE_ACTL on Anti-GST sensor, Stomid 3.12 µM): 0.126 and 0.163 | Response (MUTE_ACTL; BLI, GST-MUTE_ACTL on Anti-GST sensor, Stomid 6.25 µM): 0.271 and 0.242 | Response (MUTE_ACTL; BLI, GST-MUTE_ACTL on Anti-GST sensor, Stomid 12.5 µM): 0.425 and 0.391 | Response (MUTE_ACTL; BLI, GST-MUTE_ACTL on Anti-GST sensor, Stomid 25 µM): 0.524 and 0.486 | Response (MUTE_ACTL; BLI, GST-MUTE_ACTL on Anti-GST sensor, Stomid 50 µM): 0.535 and 0.563 | Response (MUTE_ACTL; BLI, GST-MUTE_ACTL on Anti-GST sensor, Stomid 100 µM): 0.611 and 0.632 | Response (MUTE_ACTL; BLI, GST-MUTE_ACTL on Anti-GST sensor, Stomid 200 µM): 0.625 and 0.645 | RMax (MUTE_ACTL; BLI, sensor at Stomid 3.12 µM): 0.132 and 0.165 | Kd (MUTE_ACTL; BLI, sensor at Stomid 3.12 µM, read-out: KD): 11.7 µM | RMax (MUTE_ACTL; BLI, sensor at Stomid 6.25 µM): 0.28 and 0.245 | kobs (MUTE_ACTL; BLI, sensor at Stomid 6.25 µM): 0.00155 s⁻¹ and 0.00133 s⁻¹ | kon (MUTE_ACTL; BLI, sensor at Stomid 6.25 µM): 4070 M⁻¹ s⁻¹ | Kd (MUTE_ACTL; BLI, sensor at Stomid 6.25 µM, read-out: KD): 11.9 µM | RMax (MUTE_ACTL; BLI, sensor at Stomid 12.5 µM): 0.435 and 0.4 | Req/Rmax(%) (MUTE_ACTL; BLI, sensor at Stomid 12.5 µM): 49% and 87.1% | kdis (MUTE_ACTL; BLI, sensor at Stomid 12.5 µM): 0.0482 s⁻¹ | kon (MUTE_ACTL; BLI, sensor at Stomid 12.5 µM): 4050 M⁻¹ s⁻¹ | Kd (MUTE_ACTL; BLI, sensor at Stomid 12.5 µM, read-out: KD): 11.9 µM | RMax (MUTE_ACTL; BLI, sensor at Stomid 25 µM): 0.53 and 0.49 | Req/Rmax(%) (MUTE_ACTL; BLI, sensor at Stomid 25 µM): 61.4% and 83.8% | kdis (MUTE_ACTL; BLI, sensor at Stomid 25 µM): 0.0488 s⁻¹ | kobs (MUTE_ACTL; BLI, sensor at Stomid 25 µM): 0.00162 s⁻¹ and 0.00294 s⁻¹ | kon (MUTE_ACTL; BLI, sensor at Stomid 25 µM): 4070 M⁻¹ s⁻¹ | Kd (MUTE_ACTL; BLI, sensor at Stomid 25 µM, read-out: KD): 11.8 µM and 12 µM | RMax (MUTE_ACTL; BLI, sensor at Stomid 50 µM): 0.545 and 0.565 | Req/Rmax(%) (MUTE_ACTL; BLI, sensor at Stomid 50 µM): 71.3% | kdis (MUTE_ACTL; BLI, sensor at Stomid 50 µM): 0.0473 s⁻¹ | kon (MUTE_ACTL; BLI, sensor at Stomid 50 µM): 4010 M⁻¹ s⁻¹ | Kd (MUTE_ACTL; BLI, sensor at Stomid 50 µM, read-out: KD): 11.9 µM and 11.8 µM | RMax (MUTE_ACTL; BLI, sensor at Stomid 100 µM): 0.621 and 0.64 | Req/Rmax(%) (MUTE_ACTL; BLI, sensor at Stomid 100 µM): 98.7% | kdis (MUTE_ACTL; BLI, sensor at Stomid 100 µM): 0.0476 s⁻¹ | kon (MUTE_ACTL; BLI, sensor at Stomid 100 µM): 4080 M⁻¹ s⁻¹ | Kd (MUTE_ACTL; BLI, sensor at Stomid 100 µM, read-out: KD): 12.1 µM and 11.7 µM | RMax (MUTE_ACTL; BLI, sensor at Stomid 200 µM): 0.63 and 0.655 | Req/Rmax(%) (MUTE_ACTL; BLI, sensor at Stomid 200 µM): 100% | kdis (MUTE_ACTL; BLI, sensor at Stomid 200 µM): 0.0474 s⁻¹ | kobs (MUTE_ACTL; BLI, sensor at Stomid 200 µM): 0.0329 s⁻¹ and 0.0251 s⁻¹ | kon (MUTE_ACTL; BLI, sensor at Stomid 200 µM): 4070 M⁻¹ s⁻¹ | Kd (MUTE_ACTL; BLI, sensor at Stomid 200 µM, read-out: KD): 12 µM and 11.6 µM | Kd (MUTE_ACTL; BLI, MUTE_ACTL, read-out: KD): 12.2 ± 2.1 µM | RMax (MUTE_ACTL; [1]): 0.132 and 0.165 | Response (MUTE_ACTL; [1]): 0.126 and 0.163 | Kd (MUTE_ACTL; MUTE_ACTL on Anti-GST sensor, Stomid 3.12 µM, rep-1, rep-2, read-out: KD): 11.7 µM | RMax (MUTE_ACTL; [2]): 0.28 and 0.245 | Response (MUTE_ACTL; [2]): 0.271 and 0.242
